Measured values taken from patent US6436973B1, “LTA4 hydrolase inhibitors” (Bioprojet, priority 1998, dated 2002).
Counter-ions that a name gives are not always drawn. Blank lines part the entries; values can stand above or below the compound they belong to.

Key:
[1] = test system: biosynthesis of LTB4 in the air pouch; test: Inflammation induced by carrageenan in the air pouch model in mice (LTB4 in exudate); format: in vivo
Description: b) Inflammation induced by carrageenan in the air pouch model in mice
The air pouches are formed in mice according to Dawson et al. (Int. J. Tiss. React., 1991, XIII: 171). On day D, 5 ml of air are injected by the subcutaneous route into the back of the mice. On D+3, the pouch is maintained by reinjecting 3 ml of air. On D+6, either a cyclooxygenase inhibitor (indomethacin 5 mg/kg), or an LTA4 hydrolase inhibitor according to the invention (25 mg/kg), or the two in combination are administered by the oral route. After 1 h, 1 ml of 1% carrageenan is injected into the air pouch. The animals are sacrificed 4 h after the injection of carrageenan. The air pouche is washed with 1 ml of 50 mM potassium phosphate buffer containing 0.15 M NaCl, pH 7.4. The exudate is recovered and centrifuged at 10,000 g for 5 minutes. LTB4 is assayed in the supernatant by enzyme-linked immunoassay.

[2] = test system: oedema of the leg induced by Zymosan; test: Oedema of the leg induced by Zymosan in mice; format: in vivo; conditions: oral route, 30 mg/kg, one hour before zymosan, sacrificed after 4 hours
Description: a) Oedema of the leg induced by Zymosan in mice Zymosan is a polysaccharide of the yeast cell membrane. Injected into the leg of animals, it causes a local inflammatory reaction in the form of an oedema. One hour after administration of the inhibitor tested by the oral route to mice, at the dose of 30 mg/kg, 25 μl of zymosan (0.05% in 0.15 M NaCl) are injected into the left hind leg and 25 μl of physiological saline into the right leg as control. The animal is sacrificed after 4 hours, the legs cut at the ankle and weighed in order to evaluate the oedema developed.

[3] = target: T1, human recombinant LTA4 hydrolase (Homo sapiens, UniProt P09960); test: Inhibition of the aminopeptidase activity of recombinant LTA4 hydrolase (fluorimetric, Ala-AMC); format: biochemical; conditions: human recombinant enzyme, Ala-AMC 25 μM, DTT 10^−5 M, pH 7.4, 37° C.
T1 construct: made in house; host or cells: E. coli JM109
T1 sequence (P09960 1-611): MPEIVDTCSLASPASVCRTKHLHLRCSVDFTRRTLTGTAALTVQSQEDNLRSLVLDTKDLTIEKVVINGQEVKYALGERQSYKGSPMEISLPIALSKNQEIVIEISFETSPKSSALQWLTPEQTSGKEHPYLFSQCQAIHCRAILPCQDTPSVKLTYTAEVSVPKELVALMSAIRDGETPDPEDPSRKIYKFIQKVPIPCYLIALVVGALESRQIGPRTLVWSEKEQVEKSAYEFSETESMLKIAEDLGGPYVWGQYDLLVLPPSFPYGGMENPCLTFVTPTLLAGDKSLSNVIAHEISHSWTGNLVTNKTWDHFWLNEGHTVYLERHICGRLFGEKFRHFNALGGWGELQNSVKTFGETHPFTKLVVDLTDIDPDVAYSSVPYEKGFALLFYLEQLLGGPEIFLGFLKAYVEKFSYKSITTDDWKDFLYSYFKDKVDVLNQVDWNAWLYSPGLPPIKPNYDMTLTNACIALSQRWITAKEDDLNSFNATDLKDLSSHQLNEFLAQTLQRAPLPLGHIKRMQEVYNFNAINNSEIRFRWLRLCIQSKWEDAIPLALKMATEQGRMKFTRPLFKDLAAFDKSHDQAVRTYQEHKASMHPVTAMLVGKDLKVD
Description: 1) Inhibition of the aminopeptidase activity of recombinant LTA4 hydrolase
The compounds were tested using human recombinant LTA4 hydrolase (Minami et al., FEBS Letters, 1988, 229: 279). The LTA4 hydrolase expressed by E. coli JM109 is purified mainly according to Minami et al., (J. Biol. Chem., 1987, 262: 13873).
(§1) The inhibition of the aminopeptidase activity of the enzyme is measured by means of a fluorimetric method in 96-well microplates. The recombinant enzyme (0.5 μg in 50 μl of 50 mM Tris-HCl pH 7.4) is preincubated for 10 minutes at 37° C. in the presence of inhibitor and of dithiothreitol (DTT, 10^−5 M). The substrate alanyl-amido-methylcoumarin (Ala-AMC, 25 μM−Tris HCl 50 mM, pH 7.4) is added and the incubation is continued for 15 minutes at 37° C. The release of AMC is measured by fluorimetry.

[4] = target: T2, LTA4 hydrolase activity in human whole blood (Homo sapiens, UniProt P09960); test: Inhibition of the biosynthesis of LTB4 in vitro in human whole blood; format: cell-based; conditions: LTA4 substrate, LTB4 by enzyme-linked immunoassay
T2 construct: from tissue; host or cells: human whole blood collected over sodium heparinate
T2 sequence (P09960 1-611): T1 sequence (P09960 1-611)
Description: 2) Inhibition of the biosynthesis of LTB4 in vitro
The biosynthesis of LTB4 is measured in human whole blood in the presence of inhibitors of LTA4 hydrolase according to the invention. A 50 μl blood sample collected over sodium heparinate is preincubated for 10 minutes at 37° C. in the presence of inhibitor (50 mM Tris-HCl, 0.15 M NaCl, 10^−5 M DTT, pH 7.4).
The LTA4 substrate was freshly prepared by alkaline hydrolysis of LTA4 methyl ester (Cayman Chemical Co., USA). After incubating for 10 minutes in the presence of LTA4 (1 μm in 50 mM Tris-HCl, 0.15 M NaCl, 0.5% BSA, pH 7.4), the reaction is stopped by diluting 1/20 in 0.1 M potassium phosphate buffer containing 1.5 mM […], 0.4 M NaCl, 1 mM EDTA, 0.1% BSA, pH 7.4−4° C.
The LTB4 is assayed by enzyme-linked immunoassay (Cayman Chemical Co, USA).

[5] = target: T3, aminopeptidase M (EC 3.4.11.2) (Sus scrofa, UniProt P15145); test: Inhibition of membrane aminopeptidase M (same fluorimetric test); format: biochemical; conditions: 0.1 μg aminopeptidase M (Pierce)
T3 construct: purchased Pierce, USA
T3 sequence (P15145 1-963): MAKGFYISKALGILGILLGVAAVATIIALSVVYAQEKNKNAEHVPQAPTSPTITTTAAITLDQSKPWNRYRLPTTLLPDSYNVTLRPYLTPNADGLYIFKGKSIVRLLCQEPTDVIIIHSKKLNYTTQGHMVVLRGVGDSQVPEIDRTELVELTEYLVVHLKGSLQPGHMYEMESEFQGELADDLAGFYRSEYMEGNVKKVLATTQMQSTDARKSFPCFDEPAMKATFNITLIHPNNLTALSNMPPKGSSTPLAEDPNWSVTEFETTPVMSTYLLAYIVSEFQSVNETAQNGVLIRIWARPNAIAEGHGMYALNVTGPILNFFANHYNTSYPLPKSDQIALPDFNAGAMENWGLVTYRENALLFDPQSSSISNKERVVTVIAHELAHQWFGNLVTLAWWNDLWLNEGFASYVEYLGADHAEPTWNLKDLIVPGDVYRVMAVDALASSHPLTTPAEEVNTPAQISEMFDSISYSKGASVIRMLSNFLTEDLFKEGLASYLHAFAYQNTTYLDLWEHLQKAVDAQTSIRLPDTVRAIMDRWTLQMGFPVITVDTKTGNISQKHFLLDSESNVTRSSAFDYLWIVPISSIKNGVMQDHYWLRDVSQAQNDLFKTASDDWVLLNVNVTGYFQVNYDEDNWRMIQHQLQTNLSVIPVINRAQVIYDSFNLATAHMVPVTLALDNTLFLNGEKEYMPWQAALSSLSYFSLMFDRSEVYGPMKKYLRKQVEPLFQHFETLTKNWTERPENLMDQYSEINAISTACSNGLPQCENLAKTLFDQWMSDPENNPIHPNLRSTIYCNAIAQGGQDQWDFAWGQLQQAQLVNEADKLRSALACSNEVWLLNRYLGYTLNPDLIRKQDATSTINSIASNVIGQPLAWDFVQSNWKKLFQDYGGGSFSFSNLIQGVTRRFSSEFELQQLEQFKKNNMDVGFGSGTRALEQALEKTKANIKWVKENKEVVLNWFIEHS
Description: as §1
To evaluate the specificity of the compounds according to the invention, some of them were also tested for their capacity to inhibit the activity of membrane aminopeptidase M (EC 3.4.11.2). The same test is carried out with 0.1 μg of aminopeptidase M (Pierce, USA).

[6] = test system: biosynthesis of LTB4; test: Inhibition of the biosynthesis of LTB4 ex vivo (mouse blood after oral dosing); format: in vivo; conditions: mice, blood collected thirty minutes later
Description: 3) Inhibition of the biosynthesis of LTB4 ex vivo
The compounds inhibiting LTA4 hydrolase according to the invention are suspended in 1.25% methyl cellulose and administered to mice by the oral route at the dose of 10 mg/kg. Thirty minutes later, the mice are sacrificed and the blood collected over lithium heparinate. The blood is then, as above, incubated for 10 minutes at 37° C. in the presence of LTA4 and then the LTB4 formed is assayed by enzyme-linked immunoassay.

[7] = test system: collagen-induced arthritis; test: Collagen-induced arthritis in the rat (arthritis score); format: in vivo, rat "Dark Aganti"; conditions: score at 23rd day
Description: c) Antiarthritic effect Collagen-induced arthritis was induced in the rat “Dark […]” according to the protocol by Kamada et al. (Jpn J. Pharmacol., 1997, 74: 313). The LTA4 hydrolase inhibitors are administered either “preventively” (starting from one day after the collagen), or curatively (during the first pathological manifestations, that is starting from 15 days after the collagen). […] The effect is-compared with that of indomethacin (1.5 mg/kg, p.o.).

Compound: Cl.N[C@@H](CS)CCCCOc1ccccc1 (racemic) [Example 156, (R,S) -2-amino-6-phenoxy-1-hexanethiol hydrochloride]
% LTB4 relative to the noninflamed control ([1]; carrageenan + LTA4 hydrolase inhibitor 25 mg/kg oral, 4 h after carrageenan): −24% | % LTB4 relative to the noninflamed control ([1]; carrageenan + indomethacin 5 mg/kg + inhibitor 25 mg/kg in combination, oral): −28% | Inhibition (%) of oedema of the leg induced by Zymosan [2]: 35%

Ki [3]: 15 nM | Ki [4]: 190 nM
Compound: NC(CS)CCOc1ccccc1 (racemic) [Example 172, (R,S)-2-amino-4-phenoxy-1-butanethiol hydrochloride]

Ki [3]: 33 nM | Ki [5]: 200 nM | Ki [4]: 200 nM
Compound: NC(CS)CCCCc1ccccc1 (racemic) [Example 173, (R,S)-2-amino-6-phenyl-1-hexanethiol hydrochloride]

Compound: Cl.N[C@@H](CS)CCCOc1ccccc1 (racemic) [Example 177, (R,S)-2-amino-5-phenoxy-1-pentanethiol hydrochloride]
Inhibition (%) of the biosynthesis of LTB4 ex vivo ([6]; 10 mg/kg): 68%

Ki [3]: 62 nM
Compound: N[C@@H](CS)CSCc1ccccc1 [Example 23, (S)-2-amino-3-benzylthio-1-propanethiol hydrochloride]

Compound: N[C@H](CS)COCc1ccccc1 [Example 24, (S)-2-amino-3-benzyloxy-1-propanethiol hydrochloride]
inhibition at 10 mg/kg ([6]; Mus musculus): 28%

Compound: Cl.Cl.NC(CCCCOc1ccccc1)CSSCC(N)CCCCOc1ccccc1 [Example 229, 1,1-dithiobis(2-(R,S)-amino-6-phenoxyhexane) dihydrochloride]
Arthritis score ([7]; curative (starting 15 days after collagen), 10 mg/kg i.p. twice/day): 0.38 ± 0.19 | Arthritis score ([7]; preventive (starting one day after collagen), 10 mg/kg i.p. twice/day): 0

Compound: COc1ccc2c(c1)c(CC(=O)O)c(C)n2C(=O)c1ccc(Cl)cc1 [indomethacin, reference compound]
% LTB4 relative to the noninflamed control ([1]; carrageenan + indomethacin 5 mg/kg oral, 4 h after carrageenan): +516% | Arthritis score ([7]; curative, 1.5 mg/kg p.o.): 1.35 ± 0.61
